# Assay results taken from publication PMC12251226, “Comparison of in silico predictions of action potential duration in response to inhibition of IKr and ICaL with new human ex vivo recordings” (PLOS Computational Biology, 2025).
# Read-outs that look alike come from different tables or passages of the source.
# Legend:
# [1] = system: hERG; details: cited from earlier work
# [2] = system: adult human ventricular trabeculae; assay: Ex vivo sharp electrode action potential recording (APD90) in ventricular trabeculae, 1 Hz pacing; details: for Mean ΔAPD90 (SEM): 25 min steady 1 Hz pacing; for Change in APD90 (in words): over the tested concentrations
# [3] = molecular target: T1, CaV1.2 channels (Homo sapiens, UniProt Q13936); details: CaV1.2, CHO cells, Pharm protocol
# T1 sequence (Q13936 whole entry): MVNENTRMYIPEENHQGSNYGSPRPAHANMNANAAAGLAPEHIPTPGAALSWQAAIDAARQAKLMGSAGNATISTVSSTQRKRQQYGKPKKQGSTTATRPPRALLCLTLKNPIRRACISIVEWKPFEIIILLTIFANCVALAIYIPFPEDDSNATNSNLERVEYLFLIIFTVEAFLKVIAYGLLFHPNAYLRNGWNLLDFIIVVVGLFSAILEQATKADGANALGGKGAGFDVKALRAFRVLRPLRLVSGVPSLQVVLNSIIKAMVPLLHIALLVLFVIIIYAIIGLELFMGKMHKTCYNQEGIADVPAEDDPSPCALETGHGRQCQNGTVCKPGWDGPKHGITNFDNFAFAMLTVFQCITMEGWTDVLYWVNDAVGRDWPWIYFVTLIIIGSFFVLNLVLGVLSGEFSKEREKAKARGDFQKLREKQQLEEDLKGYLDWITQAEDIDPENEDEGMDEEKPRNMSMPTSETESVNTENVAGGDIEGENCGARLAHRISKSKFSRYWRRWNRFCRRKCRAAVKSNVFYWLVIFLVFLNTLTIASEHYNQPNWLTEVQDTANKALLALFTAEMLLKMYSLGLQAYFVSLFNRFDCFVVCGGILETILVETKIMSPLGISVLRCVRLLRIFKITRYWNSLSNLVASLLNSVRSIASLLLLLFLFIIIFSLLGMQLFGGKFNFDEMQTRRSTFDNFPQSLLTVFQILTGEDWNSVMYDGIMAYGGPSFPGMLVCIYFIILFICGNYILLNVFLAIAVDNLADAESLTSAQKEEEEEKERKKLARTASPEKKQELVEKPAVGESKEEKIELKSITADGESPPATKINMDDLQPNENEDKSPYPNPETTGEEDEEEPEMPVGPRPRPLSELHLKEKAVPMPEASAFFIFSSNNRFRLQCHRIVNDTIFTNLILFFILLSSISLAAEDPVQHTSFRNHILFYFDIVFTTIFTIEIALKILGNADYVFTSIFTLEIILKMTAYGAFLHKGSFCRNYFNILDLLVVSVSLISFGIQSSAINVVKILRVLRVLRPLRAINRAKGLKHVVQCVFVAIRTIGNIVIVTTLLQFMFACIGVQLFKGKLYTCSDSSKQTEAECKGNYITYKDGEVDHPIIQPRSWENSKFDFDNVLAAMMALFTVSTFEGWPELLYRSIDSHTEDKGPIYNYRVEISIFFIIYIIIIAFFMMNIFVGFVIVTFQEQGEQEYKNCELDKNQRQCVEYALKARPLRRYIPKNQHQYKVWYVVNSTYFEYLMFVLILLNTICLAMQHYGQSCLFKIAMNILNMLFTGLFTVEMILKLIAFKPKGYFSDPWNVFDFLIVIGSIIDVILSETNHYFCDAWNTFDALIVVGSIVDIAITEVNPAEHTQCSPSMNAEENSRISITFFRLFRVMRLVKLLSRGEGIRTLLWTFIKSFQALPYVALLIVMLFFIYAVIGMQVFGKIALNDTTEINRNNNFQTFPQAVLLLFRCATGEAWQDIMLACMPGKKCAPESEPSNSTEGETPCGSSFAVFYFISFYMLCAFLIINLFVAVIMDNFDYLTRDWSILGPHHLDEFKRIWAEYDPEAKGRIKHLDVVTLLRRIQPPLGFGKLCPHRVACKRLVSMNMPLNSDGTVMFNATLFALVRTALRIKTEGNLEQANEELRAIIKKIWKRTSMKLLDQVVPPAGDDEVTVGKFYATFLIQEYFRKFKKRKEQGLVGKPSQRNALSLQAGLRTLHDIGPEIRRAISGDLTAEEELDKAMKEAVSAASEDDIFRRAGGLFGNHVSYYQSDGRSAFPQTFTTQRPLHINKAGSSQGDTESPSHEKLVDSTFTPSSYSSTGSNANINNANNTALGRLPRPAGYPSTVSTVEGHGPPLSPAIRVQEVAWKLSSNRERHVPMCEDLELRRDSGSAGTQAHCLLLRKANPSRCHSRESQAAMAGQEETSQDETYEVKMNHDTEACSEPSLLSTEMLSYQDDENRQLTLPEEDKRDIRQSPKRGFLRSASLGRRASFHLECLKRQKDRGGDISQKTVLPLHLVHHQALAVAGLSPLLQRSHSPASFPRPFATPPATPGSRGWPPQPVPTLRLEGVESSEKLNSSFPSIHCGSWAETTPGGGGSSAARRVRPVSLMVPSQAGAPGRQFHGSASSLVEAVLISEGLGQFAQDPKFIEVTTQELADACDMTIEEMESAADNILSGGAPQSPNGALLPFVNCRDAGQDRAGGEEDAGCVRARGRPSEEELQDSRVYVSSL
# T1 sequence (Q08289 whole entry partner): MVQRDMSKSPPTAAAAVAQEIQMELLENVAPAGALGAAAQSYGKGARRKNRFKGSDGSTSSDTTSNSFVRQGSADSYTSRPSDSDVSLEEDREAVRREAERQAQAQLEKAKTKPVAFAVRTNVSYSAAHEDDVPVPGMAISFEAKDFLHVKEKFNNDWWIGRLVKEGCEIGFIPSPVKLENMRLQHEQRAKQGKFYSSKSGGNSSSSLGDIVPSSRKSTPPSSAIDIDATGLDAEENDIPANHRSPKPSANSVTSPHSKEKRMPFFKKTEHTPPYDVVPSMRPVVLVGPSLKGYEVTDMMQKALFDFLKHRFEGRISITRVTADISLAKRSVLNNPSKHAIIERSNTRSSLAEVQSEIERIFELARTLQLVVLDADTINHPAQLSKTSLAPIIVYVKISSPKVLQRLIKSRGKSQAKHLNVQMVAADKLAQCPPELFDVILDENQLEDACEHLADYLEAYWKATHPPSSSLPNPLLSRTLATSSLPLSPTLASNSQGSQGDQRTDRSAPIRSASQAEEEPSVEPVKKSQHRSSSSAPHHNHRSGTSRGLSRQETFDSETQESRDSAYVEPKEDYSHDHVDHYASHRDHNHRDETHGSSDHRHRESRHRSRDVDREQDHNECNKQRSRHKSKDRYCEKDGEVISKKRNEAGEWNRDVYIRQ
# T1 sequence (P54289 25-956 partner limits assumed): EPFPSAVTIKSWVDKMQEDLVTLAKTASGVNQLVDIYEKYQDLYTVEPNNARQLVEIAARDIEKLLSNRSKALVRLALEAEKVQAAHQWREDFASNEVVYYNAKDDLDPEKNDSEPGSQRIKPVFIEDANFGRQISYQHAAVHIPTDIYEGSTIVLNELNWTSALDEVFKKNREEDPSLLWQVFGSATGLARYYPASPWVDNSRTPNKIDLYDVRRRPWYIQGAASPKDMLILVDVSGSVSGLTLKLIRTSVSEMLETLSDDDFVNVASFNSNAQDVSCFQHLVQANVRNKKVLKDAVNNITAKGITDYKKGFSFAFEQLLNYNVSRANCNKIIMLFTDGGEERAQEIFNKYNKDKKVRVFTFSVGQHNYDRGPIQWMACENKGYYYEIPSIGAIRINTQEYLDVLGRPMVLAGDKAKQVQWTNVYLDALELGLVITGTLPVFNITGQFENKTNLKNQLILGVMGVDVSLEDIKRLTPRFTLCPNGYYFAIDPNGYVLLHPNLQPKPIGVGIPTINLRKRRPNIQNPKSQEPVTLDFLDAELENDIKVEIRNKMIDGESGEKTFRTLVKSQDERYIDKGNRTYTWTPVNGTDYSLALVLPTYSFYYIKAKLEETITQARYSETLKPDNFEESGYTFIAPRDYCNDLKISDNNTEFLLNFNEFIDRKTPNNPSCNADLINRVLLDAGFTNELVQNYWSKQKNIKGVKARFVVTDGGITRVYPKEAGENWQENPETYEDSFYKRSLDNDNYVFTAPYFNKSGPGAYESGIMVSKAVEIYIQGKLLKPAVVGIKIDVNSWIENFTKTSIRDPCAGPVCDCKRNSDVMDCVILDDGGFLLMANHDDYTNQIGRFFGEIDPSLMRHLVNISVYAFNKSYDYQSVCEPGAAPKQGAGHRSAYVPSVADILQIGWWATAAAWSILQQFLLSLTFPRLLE
# T1 sequence (P54289 957-1103 partner limits assumed): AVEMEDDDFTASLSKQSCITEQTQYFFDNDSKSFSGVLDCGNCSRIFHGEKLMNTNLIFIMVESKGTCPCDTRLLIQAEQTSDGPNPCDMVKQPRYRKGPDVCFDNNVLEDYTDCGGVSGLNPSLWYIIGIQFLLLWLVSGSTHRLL
# [4] = molecular target: T1, CaV1.2 channels; details: CaV1.2, CHO cells, CiPA protocol
# [5] = molecular target: T1, CaV1.2 channels; assay: cell-based
# [6] = molecular target: T1, CaV1.2 channels; assay: cell-based; remark: listed apart in the source
# [7] = molecular target: T2, hERG channels (Homo sapiens, UniProt Q12809); assay: Automated patch clamp, IKr CiPA protocol, CHO cells; assay type: cell-based; set-up: expressed in transfected cells; host or cells: CHO (crelox)
# T2 sequence (Q12809 whole entry): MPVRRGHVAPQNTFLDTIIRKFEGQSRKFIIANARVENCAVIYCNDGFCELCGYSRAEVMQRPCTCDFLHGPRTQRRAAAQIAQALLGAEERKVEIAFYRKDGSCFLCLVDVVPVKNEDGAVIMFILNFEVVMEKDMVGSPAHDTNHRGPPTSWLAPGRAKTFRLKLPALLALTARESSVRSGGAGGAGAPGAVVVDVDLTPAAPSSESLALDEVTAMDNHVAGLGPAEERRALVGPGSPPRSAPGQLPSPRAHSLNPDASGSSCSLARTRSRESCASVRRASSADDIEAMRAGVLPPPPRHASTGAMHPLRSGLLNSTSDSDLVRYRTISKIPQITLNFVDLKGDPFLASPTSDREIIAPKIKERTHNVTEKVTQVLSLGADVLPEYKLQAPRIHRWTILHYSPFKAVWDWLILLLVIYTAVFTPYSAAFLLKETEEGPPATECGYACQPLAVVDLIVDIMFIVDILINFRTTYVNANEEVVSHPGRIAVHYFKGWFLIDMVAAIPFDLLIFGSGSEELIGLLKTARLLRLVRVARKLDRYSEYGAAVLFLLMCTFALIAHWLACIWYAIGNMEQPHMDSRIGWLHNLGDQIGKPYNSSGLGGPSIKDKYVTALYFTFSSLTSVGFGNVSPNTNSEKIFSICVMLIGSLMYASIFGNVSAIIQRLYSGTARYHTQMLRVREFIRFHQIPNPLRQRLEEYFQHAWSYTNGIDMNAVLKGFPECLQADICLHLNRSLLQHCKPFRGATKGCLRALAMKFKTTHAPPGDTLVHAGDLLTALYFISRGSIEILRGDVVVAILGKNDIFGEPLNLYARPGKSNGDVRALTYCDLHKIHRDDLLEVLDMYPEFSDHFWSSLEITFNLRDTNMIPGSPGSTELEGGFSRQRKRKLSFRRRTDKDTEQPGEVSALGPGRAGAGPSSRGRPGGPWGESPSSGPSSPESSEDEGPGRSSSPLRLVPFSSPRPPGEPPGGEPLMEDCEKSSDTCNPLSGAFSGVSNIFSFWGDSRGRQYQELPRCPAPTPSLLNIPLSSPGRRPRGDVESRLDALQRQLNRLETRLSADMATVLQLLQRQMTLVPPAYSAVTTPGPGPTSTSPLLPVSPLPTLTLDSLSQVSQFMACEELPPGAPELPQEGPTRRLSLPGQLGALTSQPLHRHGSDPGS
# [8] = molecular target: T2, hERG channels; assay: Automated patch clamp, IKr Pharm (Roche in-house) protocol, CHO cells; details: hERG, CHO cells, Pharm protocol
# [9] = molecular target: CaV1.2 (ICaL) (Homo sapiens, UniProt Q13936); assay: in vitro; details: CHO cells expressing human CaV1.2/β2/α2δ
# [10] = molecular target: hERG (IKr) (Homo sapiens, UniProt Q12809); assay: Automated patch clamp, IKr Pharm (Roche in-house) protocol, CHO cells; details: human
compound,measurement,setting,value
COc1ccc(CCN(C)CCCC(C#N)(c2ccc(OC)c(OC)c2)C(C)C)cc1OC (centres unmarked) [Verapamil],Mean ΔAPD90 (SEM),[2]; nominal drug conc 0.01 μM,–15 (4) ms
same,Mean ΔAPD90 (SEM),[2]; nominal drug conc 0.1 μM,–19 (5) ms
same,Change in APD90 (in words),[2],substantially shortened APD90
COC(=O)C1=C(C)NC(C)=C(C(=O)OC)C1c1ccccc1[N+](=O)[O-] [Nifedipine],Mean ΔAPD90 (SEM),[2]; nominal drug conc 0.03 μM,–5 (6) ms
same,Mean ΔAPD90 (SEM),[2]; nominal drug conc 0.3 μM,–24 (6) ms
CN1CCCCC1CCN1c2ccccc2Sc2ccc([S+](C)[O-])cc21 (centres unmarked) [Mesoridazine],ICaL Pharm Hill coefficient h,[3],0.76
same,ICaL CiPA Hill coefficient h,[4],0.83
same,IC50,[5],4060 nM
same,IC50,[6],3960 nM
same,IKr CiPA Hill coefficient h,"[7]; hERG, CHO cells, CiPA protocol",0.74
same,IKr Pharm Hill coefficient h,[8],1
same,Mean ΔAPD90 (SEM),[2]; nominal drug conc 0.04 μM,–2 (7) ms
same,Change in APD90 (in words),[2],little or no change in APD90
CN(C)CCCN1c2ccccc2Sc2ccc(Cl)cc21 [Chlorpromazine],ICaL Pharm Hill coefficient h,[3],0.88
same,ICaL CiPA Hill coefficient h,[4],0.93
same,Change in APD90 (in words),[2],little or no change in APD90
CN1CCN(C2=Nc3cc(Cl)ccc3Nc3ccccc32)CC1 [Clozapine],inhibition at 3 µM,[9],59%
same,IKr CiPA Hill coefficient h,[7]; human,0.94
same,inhibition at 3 µM,[10],57%
same,Change in APD90 (in words),[2],little or no change in APD90
CNCCC(Oc1ccc(C(F)(F)F)cc1)c1ccccc1 (centres unmarked) [Fluoxetine],ICaL Pharm Hill coefficient h,[3],0.94
same,ICaL CiPA Hill coefficient h,[4],0.90
same,Mean ΔAPD90 (SEM),[2]; nominal drug conc 3 μM,–2 (5) ms
same,Change in APD90 (in words),[2],little or no change in APD90
